In series [1] the test system is HEK-293T cells. Briefly: Cell viability assay (CCK-8, 72 h). The conditions noted are these: Homo sapiens, read-out: HEK-293T IC50 (growth inhibition).
For series [2], the system named is SK-MEL-28 cells. As to the kind of experiment: Cell viability assay (CCK-8, 72 h). The conditions noted are these: Homo sapiens, SK-MEL-28, 72 h, read-out: SK-MEL-28 IC50 (growth inhibition).
The test system of series [3] is SNU-5 cells. Briefly: Cell viability assay (CCK-8, 72 h). The conditions noted are these: Homo sapiens, SNU-5, 72 h, read-out: SNU-5 IC50 (growth inhibition).
Series [4] deals with ALK (kinase domain, 1068–1410) (Homo sapiens, UniProt Q9UM73). Briefly: Enzymatic inhibition assay, ATP hydrolysis (Kinase-Glo luminescent kit). A general note: In Kinase-Glo more light means more ATP remaining.
ALK (kinase domain, 1068–1410), sequence (Q9UM73 1068-1410): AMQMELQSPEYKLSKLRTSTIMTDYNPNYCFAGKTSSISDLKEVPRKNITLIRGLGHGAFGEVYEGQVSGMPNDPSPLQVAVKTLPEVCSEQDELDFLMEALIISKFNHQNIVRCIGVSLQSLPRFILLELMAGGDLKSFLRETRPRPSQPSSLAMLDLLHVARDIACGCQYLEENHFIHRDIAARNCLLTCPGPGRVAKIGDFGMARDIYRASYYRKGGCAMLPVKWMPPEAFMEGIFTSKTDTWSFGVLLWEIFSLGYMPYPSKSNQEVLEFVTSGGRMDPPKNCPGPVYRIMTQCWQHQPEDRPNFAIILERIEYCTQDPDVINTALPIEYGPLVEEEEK
Series [5] is described as follows: Pharmacokinetic analysis of crizotinib glucosides after oral gavage, plasma LC/MS/MS. The format is in vivo, male C57 mice.
For series [6], the system named is cancer cells. Set-up: method as in PMID 25184545. The conditions noted are these: compared with deglycoBLM (6); cited from earlier work.
[7] abbreviates: mouse, plasma, oral GA95 91.6 mg/kg, male C57 mice, analyte Glycolcrizotinib.

As a reminder, the IC50 is the concentration that gives 50% inhibition. One may read the half-life as the time needed for the level to fall by half in the phase considered.

Turning to `C[C@@H](Oc1cc(-c2cnn(C3CCNCC3)c2)cnc1N)c1c(Cl)ccc(F)c1Cl` [Crizotinib, reference compound], the results for the IC50 in series [1], in series [2] and in series [3] were 6 µM, 6 µM and 0.015 µM, respectively.

Turning to `CC(=O)OC[C@H]1O[C@@H](OC(=O)N2CCC(n3cc(-c4cnc(N)c(O[C@H](C)c5c(Cl)ccc(F)c5Cl)c4)cn3)CC2)[C@H](OC(C)=O)[C@@H](OC(C)=O)[C@@H]1OC(C)=O` [GA89], the half-inhibitory concentration (IC50) in series [1] worked out at 5 µM; in series [2] it was 5 µM; in series [3], 0.045 µM; in series [4], 1.1 µM.

As for `C[C@@H](Oc1cc(-c2cnn(C3CCN(C(=O)O[C@@H]4O[C@H](CO)[C@@H](O)[C@H](O)[C@H]4O)CC3)c2)cnc1N)c1c(Cl)ccc(F)c1Cl` [GA95], the half-inhibitory concentration (IC50) in series [1] turned out to be 25 µM. The IC50 in series [2] worked out at 25 µM. In addition, in series [3], the half-inhibitory concentration (IC50) amounted to 0.022 µM. This compound had a half-life in series [5] (mouse, plasma, oral GA95 91.6 mg/kg, male C57 mice, analyte GA95) of 43.6 min. In series [5] (setting [7]), this compound showed an AUC(0-inf) of 0.0426 µg·h/mL, an AUC(0-t) of 0.0376 µg·h/mL, a Cmax of 0.0336 µg/mL and an MRT of 64.8 min. For the same compound, in series [5] (setting [7]), the Tmax came to 15 min. In addition, the “plasma concentration of crizotinib after oral application of the glucoside” value in series [5] (oral GA95, male C57 mice, compared with the crizotinib group) is reported as “quickly increased to the similar level as the crizotinib group”. Further, the IC50 in series [4] was determined as 0.3 µM.

Turning to `Cc1c(N)nc([C@H](CC(N)=O)NC[C@H](N)C(N)=O)nc1C(=O)N[C@H](C(=O)N[C@H](C)[C@@H](O)[C@H](C)C(=O)N[C@H](C(=O)NCCc1nc(-c2nc(C(=O)NCCCNCCCCNC(=O)OC3O[C@@H](CO)[C@@H](O)[C@H](O)[C@@H]3O[C@H]3O[C@H](CO)[C@@H](O)[C@H](OC(N)=O)[C@@H]3O)cs2)cs1)[C@@H](C)O)[C@@H](O)c1c[nH]cn1` (stereo partly shown) [compound 5], the cytotoxic activity result in series [6] is recorded as “significantly more potent cytotoxic activity than deglycoBLM (6)”.

These data come from publication PMC11606974, “Stereoselective chemical N-glycoconjugation of amines via CO2 incorporation” (Nature Communications, 2024).
